Source: ChEMBL document CHEMBL1255363, “In vivo efficacy of beta-cyclodextrin derivatives against anthrax lethal toxin” (Antimicrob Agents Chemother, 2008)
Active and inactive are the calls of the source. No cut-off for these calls is given here.

Legend:
Lethal factor = target: T1, Lethal factor (Bacillus anthracis, UniProt P15917); experiment: Inhibition of Bacillus anthracis lethal factor
T1 sequence (P15917 whole entry): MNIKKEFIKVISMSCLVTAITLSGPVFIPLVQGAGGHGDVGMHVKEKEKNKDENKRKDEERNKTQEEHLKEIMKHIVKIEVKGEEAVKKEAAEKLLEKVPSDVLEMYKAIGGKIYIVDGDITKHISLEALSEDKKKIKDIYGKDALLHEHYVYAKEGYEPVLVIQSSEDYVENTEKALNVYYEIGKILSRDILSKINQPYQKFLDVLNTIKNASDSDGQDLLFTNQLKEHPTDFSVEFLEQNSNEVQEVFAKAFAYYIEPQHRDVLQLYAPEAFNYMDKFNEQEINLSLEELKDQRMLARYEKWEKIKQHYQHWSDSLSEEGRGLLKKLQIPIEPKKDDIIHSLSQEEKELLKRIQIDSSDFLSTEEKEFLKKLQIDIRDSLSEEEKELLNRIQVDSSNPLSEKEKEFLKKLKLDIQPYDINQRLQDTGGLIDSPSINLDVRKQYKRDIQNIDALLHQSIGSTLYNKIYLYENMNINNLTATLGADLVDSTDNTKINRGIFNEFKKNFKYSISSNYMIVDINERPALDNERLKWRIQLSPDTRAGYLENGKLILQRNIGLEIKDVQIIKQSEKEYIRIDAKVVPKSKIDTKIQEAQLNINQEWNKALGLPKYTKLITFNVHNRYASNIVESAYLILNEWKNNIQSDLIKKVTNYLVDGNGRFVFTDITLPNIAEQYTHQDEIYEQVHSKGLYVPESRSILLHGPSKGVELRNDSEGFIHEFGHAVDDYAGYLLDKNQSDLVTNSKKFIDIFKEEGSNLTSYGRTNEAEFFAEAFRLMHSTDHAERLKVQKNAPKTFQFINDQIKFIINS

Bacillus anthracis [1] = experiment: Antibacterial activity against Bacillus anthracis infected in Fischer 344 rat assessed as enhancement of survival rate against lethal toxin-mediated toxicity at 0.085 mg, iv coadministered along with 10 ug bacterial lethal factor measured up to 8 hrs; assay type: functional, organism-based
Bacillus anthracis [2] = experiment: Antibacterial activity against Bacillus anthracis infected in Fischer 344 rat assessed as enhancement of survival rate against lethal toxin-mediated toxicity at 1.25 mg, iv administered 30 mins prior to 10 ug bacterial lethal factor infusion measured up to 8 hrs; assay type: functional, organism-based
Bacillus anthracis [3] = experiment: Antibacterial activity against Bacillus anthracis infected in Fischer 344 rat assessed as time to death at 0.017 mg, iv coadministered along with 10 ug bacterial lethal factor up to 8 hrs; assay type: functional
Bacillus anthracis [4] = experiment: Antibacterial activity against Bacillus anthracis infected in Fischer 344 rat assessed as enhancement of survival rate against lethal toxin-mediated toxicity at 0.25 mg, iv coadministered along with 10 ug bacterial lethal factor measured up to 8 hrs; assay type: functional, organism-based
Bacillus anthracis [5] = experiment: Antibacterial activity against Bacillus anthracis Sterne infected in DBA/2 mouse assessed survival rate at 2.5 mg/kg, iv QD for 10 days measured post last dose in presence of 50 mg/kg/day, ip ciprofloxacin; assay type: functional
Bacillus anthracis [6] = experiment: Antibacterial activity against Bacillus anthracis Sterne infected in DBA/2 mouse at 2.5 mg/kg, iv QD for 10 days measured post last dose; assay type: functional, organism-based; design: dose 2.5 mg/kg
Bacillus anthracis [7] = experiment: Antibacterial activity against Bacillus anthracis infected in Fischer 344 rat assessed as enhancement of survival rate against lethal toxin-mediated toxicity at 1.25 mg, iv coadministered along with 10 ug bacterial lethal factor measured up to 8 hrs; assay type: functional, organism-based
Bacillus anthracis [8] = experiment: Antibacterial activity against Bacillus anthracis infected in Fischer 344 rat assessed as time to death at 0.25 mg, iv coadministered along with 10 ug bacterial lethal factor up to 8 hrs; assay type: functional

SMILES	IC50 (Lethal factor) [nM]	Activity (Bacillus anthracis [1])	Activity (Bacillus anthracis [2])	Time (Bacillus anthracis [3]) [min]	Activity (Bacillus anthracis [4])	Activity (Bacillus anthracis [5])	Activity (Bacillus anthracis [6])	Activity (Bacillus anthracis [7])	Time (Bacillus anthracis [8]) [min]
NCCCCCCCCSC[C@H]1O[C@H]2O[C@H]3[C@H](O)[C@@H](O)[C@H](O[C@H]4[C@H](O)[C@@H](O)[C@H](O[C@H]5[C@H](O)[C@@H](O)[C@H](O[C@H]6[C@H](O)[C@@H](O)[C@H](O[C@H]7[C@H](O)[C@@H](O)[C@H](O[C@H]8[C@H](O)[C@@H](O)[C@H](O[C@H]1[C@H](O)[C@H]2O)O[C@@H]8CSCCCCCCCCN)O[C@@H]7CSCCCCCCCCN)O[C@@H]6CSCCCCCCCCN)O[C@@H]5CSCCCCCCCCN)O[C@@H]4CSCCCCCCCCN)O[C@@H]3CSCCCCCCCCN	300	Active	Active	623	Active	–	–	–	–
NCc1ccc(CSC[C@H]2O[C@H]3O[C@H]4[C@H](O)[C@@H](O)[C@H](O[C@H]5[C@H](O)[C@@H](O)[C@H](O[C@H]6[C@H](O)[C@@H](O)[C@H](O[C@H]7[C@H](O)[C@@H](O)[C@H](O[C@H]8[C@H](O)[C@@H](O)[C@H](O[C@H]9[C@H](O)[C@@H](O)[C@H](O[C@H]2[C@H](O)[C@H]3O)O[C@@H]9CSCc2ccc(CN)cc2)O[C@@H]8CSCc2ccc(CN)cc2)O[C@@H]7CSCc2ccc(CN)cc2)O[C@@H]6CSCc2ccc(CN)cc2)O[C@@H]5CSCc2ccc(CN)cc2)O[C@@H]4CSCc2ccc(CN)cc2)cc1	700	Active	Active	382	Active	–	–	–	–
NCc1cccc(CSC[C@H]2O[C@H]3O[C@H]4[C@H](O)[C@@H](O)[C@H](O[C@H]5[C@H](O)[C@@H](O)[C@H](O[C@H]6[C@H](O)[C@@H](O)[C@H](O[C@H]7[C@H](O)[C@@H](O)[C@H](O[C@H]8[C@H](O)[C@@H](O)[C@H](O[C@H]9[C@H](O)[C@@H](O)[C@H](O[C@H]2[C@H](O)[C@H]3O)O[C@@H]9CSCc2cccc(CN)c2)O[C@@H]8CSCc2cccc(CN)c2)O[C@@H]7CSCc2cccc(CN)c2)O[C@@H]6CSCc2cccc(CN)c2)O[C@@H]5CSCc2cccc(CN)c2)O[C@@H]4CSCc2cccc(CN)c2)c1	500	Active	Active	285	Active	<=90%	Active	Active	–
NCCCSC[C@H]1O[C@H]2O[C@H]3[C@H](O)[C@@H](O)[C@H](O[C@H]4[C@H](O)[C@@H](O)[C@H](O[C@H]5[C@H](O)[C@@H](O)[C@H](O[C@H]6[C@H](O)[C@@H](O)[C@H](O[C@H]7[C@H](O)[C@@H](O)[C@H](O[C@H]8[C@H](O)[C@@H](O)[C@H](O[C@H]1[C@H](O)[C@H]2O)O[C@@H]8CSCCCN)O[C@@H]7CSCCCN)O[C@@H]6CSCCCN)O[C@@H]5CSCCCN)O[C@@H]4CSCCCN)O[C@@H]3CSCCCN	2900	–	Active	–	inactive	–	–	Active	130
